Assay results as given in publication PMC5218480 (PLoS ONE, 2017).

Tested on: MV-4-11 cells
Assay: Gene expression microarray analysis (Affymetrix PrimeView) and GSEA
Format: cell-based, human
Set-up: RFU PODN (11730768_x_at) / Fold change /veh PODN (11730768_x_at) / RFU LINC00158 (11744669_a_at) / Fold change /veh LINC00158 (11744669_a_at) / RFU DUSP10 (11751237_a_at) / Fold change /veh DUSP10 (11751237_a_at) / RFU ID3 (11757404_x_at) / Fold change /veh ID3 (11757404_x_at) / RFU PLEKHG5 (11737974_s_at) / Fold change /veh PLEKHG5 (11737974_s_at) / RFU LRRC4B (11730491_at) / Fold change /veh LRRC4B (11730491_at) / RFU GIMAP4 (11747438_a_at) / Fold change /veh GIMAP4 (11747438_a_at) / RFU KRT8 (11758183_x_at) / Fold change /veh KRT8 (11758183_x_at) / RFU CNN1 (11734310_a_at) / Fold change /veh CNN1 (11734310_a_at) / RFU VPS37D (11726825_at) / Fold change /veh VPS37D (11726825_at) / RFU C10orf10 (11716522_x_at) / Fold change /veh C10orf10 (11716522_x_at) / RFU KIR2DL2 /// KIR2DL4 /// KIR2DL5A /// KIR2DL5B /// KIR2DS1 /// KIR2DS2 /// KIR2DS3 /// KIR2DS4 /// KIR3DL3 /// KIR3DL3 /// KIR3DS1 (11738374_at) / Fold change /veh KIR2DL2 /// KIR2DL4 /// KIR2DL5A /// KIR2DL5B /// KIR2DS1 /// KIR2DS2 /// KIR2DS3 /// KIR2DS4 /// KIR3DL3 /// KIR3DL3 /// KIR3DS1 (11738374_at) / RFU C1QL1 (11718748_at) / Fold change /veh C1QL1 (11718748_at) / RFU TMPRSS4 (11747572_a_at) / Fold change /veh TMPRSS4 (11747572_a_at) / RFU HAMP (11756126_x_at) / Fold change /veh HAMP (11756126_x_at) / RFU RNFT2 (11725882_a_at) / Fold change /veh RNFT2 (11725882_a_at) / RFU NR4A2 (11747474_a_at) / Fold change /veh NR4A2 (11747474_a_at) / RFU ABCC12 (11746883_a_at) / Fold change /veh ABCC12 (11746883_a_at) / RFU TMEM136 (11760407_x_at) / Fold change /veh TMEM136 (11760407_x_at) / RFU CLDN22 /// WWC2 (11732394_at) / Fold change /veh CLDN22 /// WWC2 (11732394_at) / RFU HLA-DPB1 (11760878_x_at) / Fold change /veh HLA-DPB1 (11760878_x_at) / RFU SPINT1 (11716480_a_at) / Fold change /veh SPINT1 (11716480_a_at) / RFU GAP43 (11754022_s_at) / Fold change /veh GAP43 (11754022_s_at) / RFU A4GNT (11735810_at) / Fold change /veh A4GNT (11735810_at) / RFU PRB3 (11715151_x_at) / Fold change /veh PRB3 (11715151_x_at) / RFU TUBB4B (11761932_at) / Fold change /veh TUBB4B (11761932_at) / RFU CAPN14 (11732068_a_at) / Fold change /veh CAPN14 (11732068_a_at) / RFU TMCC2 (11721928_a_at) / Fold change /veh TMCC2 (11721928_a_at) / RFU IRGQ (11745062_a_at) / Fold change /veh IRGQ (11745062_a_at) / RFU FAM174B (11720279_a_at) / Fold change /veh FAM174B (11720279_a_at) / RFU TMPRSS4 (11748680_a_at) / Fold change /veh TMPRSS4 (11748680_a_at) / RFU FAM212B (11763350_a_at) / Fold change /veh FAM212B (11763350_a_at) / RFU PLEKHG5 (11743358_a_at) / Fold change /veh PLEKHG5 (11743358_a_at) / RFU ZSCAN30 (11745921_a_at) / Fold change /veh ZSCAN30 (11745921_a_at) / RFU CMKLR1 (11741424_a_at) / Fold change /veh CMKLR1 (11741424_a_at) / RFU LOC101060620 /// MAPK8IP1 (11723275_at) / Fold change /veh LOC101060620 /// MAPK8IP1 (11723275_at) / RFU SPTSSB (11747773_x_at) / Fold change /veh SPTSSB (11747773_x_at) / RFU PRSS12 (11739890_at) / Fold change /veh PRSS12 (11739890_at) / RFU BIN1 (11741810_x_at) / Fold change /veh BIN1 (11741810_x_at) / RFU WNT11 (11732464_a_at) / Fold change /veh WNT11 (11732464_a_at) / RFU C10orf10 (11716521_a_at) / Fold change /veh C10orf10 (11716521_a_at) / RFU C5orf56 (11738089_at) / Fold change /veh C5orf56 (11738089_at) / RFU CYB561 (11721691_x_at) / Fold change /veh CYB561 (11721691_x_at) / RFU ANKRD19P (11752326_a_at) / Fold change /veh ANKRD19P (11752326_a_at) / RFU OR2T12 /// OR2T33 /// OR2T8 (11738714_s_at) / Fold change /veh OR2T12 /// OR2T33 /// OR2T8 (11738714_s_at) / RFU VCAN (11748164_a_at) / Fold change /veh VCAN (11748164_a_at) / RFU JSRP1 (11732532_at) / Fold change /veh JSRP1 (11732532_at) / RFU KRTAP10-11 (11738290_x_at) / Fold change /veh KRTAP10-11 (11738290_x_at) / RFU MYO3A (11730013_a_at) / Fold change /veh MYO3A (11730013_a_at) / RFU EBF3 (11725865_a_at) / Fold change /veh EBF3 (11725865_a_at) / RFU CAMK2N1 (11719241_x_at) / Fold change /veh CAMK2N1 (11719241_x_at) / RFU C5orf56 (11738088_a_at) / Fold change /veh C5orf56 (11738088_a_at) / RFU OLFML3 (11715873_a_at) / Fold change /veh OLFML3 (11715873_a_at) / RFU LOC100653217 /// NTM (11731650_a_at) / Fold change /veh LOC100653217 /// NTM (11731650_a_at) / RFU MAPK11 (11762145_a_at) / Fold change /veh MAPK11 (11762145_a_at) / RFU FIZ1 (11724087_x_at) / Fold change /veh FIZ1 (11724087_x_at) / RFU OASL (11726364_x_at) / Fold change /veh OASL (11726364_x_at) / RFU SOX15 (11748057_x_at) / Fold change /veh SOX15 (11748057_x_at) / RFU CD79A (11719716_a_at) / Fold change /veh CD79A (11719716_a_at) / RFU HIST1H1D (11736915_at) / Fold change /veh HIST1H1D (11736915_at) / RFU CASKIN2 (11723855_a_at) / Fold change /veh CASKIN2 (11723855_a_at) / RFU LOC730098 (11760151_x_at) / Fold change /veh LOC730098 (11760151_x_at) / RFU OR4N2 (11742367_at) / Fold change /veh OR4N2 (11742367_at) / RFU PRRT2 (11749266_a_at) / Fold change /veh PRRT2 (11749266_a_at) / RFU SNX32 (11753110_a_at) / Fold change /veh SNX32 (11753110_a_at) / RFU CDHR5 (11726645_a_at) / Fold change /veh CDHR5 (11726645_a_at) / RFU RCAN1 (11760418_a_at) / Fold change /veh RCAN1 (11760418_a_at) / RFU FAM167A (11723789_a_at) / Fold change /veh FAM167A (11723789_a_at) / RFU FAM26E (11764081_at) / Fold change /veh FAM26E (11764081_at) / RFU ISYNA1 (11749810_s_at) / Fold change /veh ISYNA1 (11749810_s_at) / RFU ACY1 (11761880_at) / Fold change /veh ACY1 (11761880_at) / RFU 11764098_at / Fold change /veh 11764098_at / RFU SAMD14 (11745864_x_at) / Fold change /veh SAMD14 (11745864_x_at) / RFU NPB (11741838_a_at) / Fold change /veh NPB (11741838_a_at) / RFU TMPRSS6 (11731388_a_at) / Fold change /veh TMPRSS6 (11731388_a_at) / RFU KRTAP10-2 (11738614_at) / Fold change /veh KRTAP10-2 (11738614_at) / RFU ARHGAP8 /// PRR5-ARHGAP8 (11727945_x_at) / Fold change /veh ARHGAP8 /// PRR5-ARHGAP8 (11727945_x_at) / RFU KRTAP5-7 /// NADSYN1 (11734609_at) / Fold change /veh KRTAP5-7 /// NADSYN1 (11734609_at) / RFU RASL12 (11751679_a_at) / Fold change /veh RASL12 (11751679_a_at) / RFU CDKN2B (11736163_a_at) / Fold change /veh CDKN2B (11736163_a_at) / RFU PRF1 (11729649_at) / Fold change /veh PRF1 (11729649_at) / RFU, ZNF638 /// ZNF638-IT1 / Fold change vs veh, ZNF638 /// ZNF638-IT1 / RFU, PANK3 / Fold change vs veh, PANK3 / RFU, SH3YL1 / Fold change vs veh, SH3YL1 / RFU, ZEB2 / Fold change vs veh, ZEB2 / RFU, NRIP1 / Fold change vs veh, NRIP1 / RFU, PTTG1IP / Fold change vs veh, PTTG1IP / RFU, CAPN2 / Fold change vs veh, CAPN2 / RFU, MED14 / Fold change vs veh, MED14 / RFU, SNORA58 / Fold change vs veh, SNORA58 / RFU, C1orf63 / Fold change vs veh, C1orf63 / RFU, LRRFIP1 / Fold change vs veh, LRRFIP1 / RFU, NDUFAF7 / Fold change vs veh, NDUFAF7 / RFU, SLC12A2 / Fold change vs veh, SLC12A2 / RFU, IBTK / Fold change vs veh, IBTK / RFU, ESF1 / Fold change vs veh, ESF1 / Fold change vs veh, TMEM50B / RFU, TAOK1 / Fold change vs veh, TAOK1 / RFU, ACBD3 / Fold change vs veh, ACBD3 / RFU, TMA16 / Fold change vs veh, TMA16 / RFU, RWDD3 / Fold change vs veh, RWDD3 / RFU, BCAT1 / Fold change vs veh, BCAT1 / RFU, EDEM3 / Fold change vs veh, EDEM3 / RFU, TMEM33 / Fold change vs veh, TMEM33 / RFU, WDR75 / Fold change vs veh, WDR75 / RFU, AHCTF1 / Fold change vs veh, AHCTF1 / RFU, TFRC / Fold change vs veh, TFRC / RFU, ZDHHC17 / Fold change vs veh, ZDHHC17 / RFU, NOM1 / Fold change vs veh, NOM1 / RFU, ARL8B / Fold change vs veh, ARL8B / RFU, ZBTB11 / Fold change vs veh, ZBTB11 / RFU, TAMM41 / Fold change vs veh, TAMM41 / RFU, KIAA1704 /// LOC100996395 / Fold change vs veh, KIAA1704 /// LOC100996395 / RFU, ING1 / Fold change vs veh, ING1 / RFU, TRMT61B / Fold change vs veh, TRMT61B / RFU, FUBP3 / Fold change vs veh, FUBP3 / RFU, TP53 / Fold change vs veh, TP53 / RFU, TNKS2 / Fold change vs veh, TNKS2 / RFU, ZFP14 / Fold change vs veh, ZFP14 / RFU, ACTR2 / Fold change vs veh, ACTR2 / RFU, PPP3R1 / Fold change vs veh, PPP3R1 / RFU, PIK3R1 / Fold change vs veh, PIK3R1 / RFU, HNRNPA1 / Fold change vs veh, HNRNPA1 / RFU, RNF170 / Fold change vs veh, RNF170 / RFU, ZNF28 / Fold change vs veh, ZNF28 / RFU, RNGTT / Fold change vs veh, RNGTT / RFU, OGT / Fold change vs veh, OGT / RFU, BRD1 / Fold change vs veh, BRD1 / RFU, MARS / Fold change vs veh, MARS / RFU, ZNF655 / Fold change vs veh, ZNF655 / RFU, FAHD1 / Fold change vs veh, FAHD1 / RFU, BDP1 / Fold change vs veh, BDP1 / RFU, LRRCC1 / Fold change vs veh, LRRCC1 / RFU, ARID1A / Fold change vs veh, ARID1A / RFU, ZNF146 / Fold change vs veh, ZNF146 / RFU, ZNF330 / Fold change vs veh, ZNF330 / RFU, GPN3 / Fold change vs veh, GPN3 / RFU, C9orf123 / Fold change vs veh, C9orf123 / RFU, N4BP2L2 / Fold change vs veh, N4BP2L2 / RFU, ARFIP1 / Fold change vs veh, ARFIP1 / RFU, FAM179B / Fold change vs veh, FAM179B / RFU, BCL10 / Fold change vs veh, BCL10 / RFU, UHRF1BP1L / Fold change vs veh, UHRF1BP1L / RFU, BET1 / Fold change vs veh, BET1 / RFU, CNOT2 / Fold change vs veh, CNOT2 / RFU, ZNF268 / Fold change vs veh, ZNF268 / Fold change vs veh, ZNF507 / RFU, DGCR2 / Fold change vs veh, DGCR2 / RFU, WDSUB1 / Fold change vs veh, WDSUB1 / Fold change vs veh, HSP90B1 /// MIR3652 / RFU, ADSS / Fold change vs veh, ADSS / RFU, GK / Fold change vs veh, GK / RFU, ZNF148 / Fold change vs veh, ZNF148 / RFU, TAF9 / Fold change vs veh, TAF9 / RFU, SLC1A5 / Fold change vs veh, SLC1A5 / RFU, SLMO2 / Fold change vs veh, SLMO2 / RFU, ABCC4 / Fold change vs veh, ABCC4 / RFU, LOC101060439 /// RAP1B / Fold change vs veh, LOC101060439 /// RAP1B / RFU, RFX7 / Fold change vs veh, RFX7 / RFU, GTPBP10 / Fold change vs veh, GTPBP10 / RFU, CNEP1R1 / Fold change vs veh, CNEP1R1 / RFU, BIVM-ERCC5 /// ERCC5 / Fold change vs veh, BIVM-ERCC5 /// ERCC5 / RFU, ILF3 / Fold change vs veh, ILF3 / RFU 11762660_at / Fold change /veh 11762660_at / RFU VCAN (11757783_s_at) / Fold change /veh VCAN (11757783_s_at) / RFU DDX43 (11728927_at) / Fold change /veh DDX43 (11728927_at) / RFU KRT8 (11758188_x_at) / Fold change /veh KRT8 (11758188_x_at) / RFU NKD1 (11759106_at) / Fold change /veh NKD1 (11759106_at) / RFU SRD5A1 (11742802_a_at) / Fold change /veh SRD5A1 (11742802_a_at) / RFU TPSAB1 /// TPSB2 (11721975_s_at) / Fold change /veh TPSAB1 /// TPSB2 (11721975_s_at) / RFU GSTM3 (11746129_a_at) / Fold change /veh GSTM3 (11746129_a_at) / RFU IL23R (11737362_x_at) / Fold change /veh IL23R (11737362_x_at) / RFU TMEM51 (11727254_a_at) / Fold change /veh TMEM51 (11727254_a_at) / RFU PIWIL2 (11732686_x_at) / Fold change /veh PIWIL2 (11732686_x_at) / RFU ORM1 (11744905_x_at) / Fold change /veh ORM1 (11744905_x_at) / RFU CCDC152 (11743942_at) / Fold change /veh CCDC152 (11743942_at) / RFU ECM1 (11717891_a_at) / Fold change /veh ECM1 (11717891_a_at) / RFU IL23R (11748794_a_at) / Fold change /veh IL23R (11748794_a_at) / RFU TNFAIP8L3 (11732012_x_at) / Fold change /veh TNFAIP8L3 (11732012_x_at) / RFU MBOAT4 (11741988_at) / Fold change /veh MBOAT4 (11741988_at) / RFU 11764193_at / Fold change /veh 11764193_at / RFU TMEM53 (11763286_at) / Fold change /veh TMEM53 (11763286_at) / RFU MAGEB2 (11727129_at) / Fold change /veh MAGEB2 (11727129_at) / RFU TMEM200A (11744735_a_at) / Fold change /veh TMEM200A (11744735_a_at) / RFU CCDC152 (11751479_a_at) / Fold change /veh CCDC152 (11751479_a_at) / RFU FAM211A (11726209_a_at) / Fold change /veh FAM211A (11726209_a_at) / RFU RGS16 (11746705_a_at) / Fold change /veh RGS16 (11746705_a_at) / RFU VCAN (11755009_s_at) / Fold change /veh VCAN (11755009_s_at) / RFU RHOB (11743442_s_at) / Fold change /veh RHOB (11743442_s_at) / RFU RGS16 (11720943_a_at) / Fold change /veh RGS16 (11720943_a_at) / RFU RGS16 (11720944_at) / Fold change /veh RGS16 (11720944_at) / RFU, VPS4B / Fold change vs veh, VPS4B / RFU, CREB1 / Fold change vs veh, CREB1 / RFU, DNAJC13 / Fold change vs veh, DNAJC13 / RFU, GNAQ / Fold change vs veh, GNAQ / RFU, CDK5R1 / Fold change vs veh, CDK5R1 / RFU, ZRANB3 / Fold change vs veh, ZRANB3 / RFU, CUL4A / Fold change vs veh, CUL4A / RFU, CCNY / Fold change vs veh, CCNY / RFU, UFL1 / Fold change vs veh, UFL1 / RFU, COG3 / Fold change vs veh, COG3 / RFU, DIAPH2 / Fold change vs veh, DIAPH2 / RFU, SKA2 / Fold change vs veh, SKA2 / RFU, AFF3 / Fold change vs veh, AFF3 / RFU, LMF1 / Fold change vs veh, LMF1 / RFU, IPO11 / Fold change vs veh, IPO11 / RFU, DFFB / Fold change vs veh, DFFB / RFU, FOXP1 / Fold change vs veh, FOXP1 / RFU, CARD8 / Fold change vs veh, CARD8 / RFU, STRN3 / Fold change vs veh, STRN3 / RFU, ADK / Fold change vs veh, ADK / RFU, RASSF2 / Fold change vs veh, RASSF2 / RFU, WIPF1 / Fold change vs veh, WIPF1 / RFU, LARP1B / Fold change vs veh, LARP1B / RFU, RASA1 / Fold change vs veh, RASA1 / RFU, RB1 / Fold change vs veh, RB1 / RFU, PPFIA1 / Fold change vs veh, PPFIA1 / RFU, MAT2A / Fold change vs veh, MAT2A / RFU, CCT5 / Fold change vs veh, CCT5 / RFU, WDR92 / Fold change vs veh, WDR92 / RFU, CUX1 / Fold change vs veh, CUX1 / RFU, TTC7A / Fold change vs veh, TTC7A / RFU, TMEM135 / Fold change vs veh, TMEM135 / RFU, DEPTOR / Fold change vs veh, DEPTOR / RFU, CPM / Fold change vs veh, CPM / RFU, DNAJB6 / Fold change vs veh, DNAJB6 / RFU, CACNA2D3 / Fold change vs veh, CACNA2D3 / RFU, DTX4 / Fold change vs veh, DTX4 / RFU, TFCP2 / Fold change vs veh, TFCP2 / RFU, GMCL1 /// GMCL1P1 / Fold change vs veh, GMCL1 /// GMCL1P1 / RFU, AEBP2 / Fold change vs veh, AEBP2 / RFU, SNHG1 /// SNORD22 /// SNORD25 /// SNORD26 /// SNORD27 /// SNORD28 /// SNORD29 /// SNORD31 / Fold change vs veh, SNHG1 /// SNORD22 /// SNORD25 /// SNORD26 /// SNORD27 /// SNORD28 /// SNORD29 /// SNORD31 / Fold change (Aza/veh), C12orf56 (ProbeSet 11735607_a_at) / Fold change (ACY-1035/veh), C12orf56 (ProbeSet 11735607_a_at) / Fold change (Aza/veh), FGFR1OP (ProbeSet 11751329_s_at) / Fold change (ACY-1035/veh), FGFR1OP (ProbeSet 11751329_s_at) / Fold change (Aza/veh), VPS36 (ProbeSet 11739960_a_at) / Fold change (ACY-1035/veh), VPS36 (ProbeSet 11739960_a_at) / RFU SYPL1 (11715823_x_at) / Fold change /veh SYPL1 (11715823_x_at) / RFU IGFBP7 (11715501_s_at) / Fold change /veh IGFBP7 (11715501_s_at) / RFU REEP3 (11722064_at) / Fold change /veh REEP3 (11722064_at) / RFU IGLL1 (11728026_x_at) / Fold change /veh IGLL1 (11728026_x_at): dose or concentration left out as unconfirmed
Conditions: MV-4-11 cells, 48 hours

SMILES: Nc1ccc(-c2cccs2)cc1NC(=O)c1ccc2c(c1)cc(C1CC1)n2CCN1CCOCC1 [ACY-1035]
- Fold change /veh LOC100653217 /// NTM (11731650_a_at): 0.99
